Literature values in patent US20040258838A1, “Method for preserving wood materials using precipitated copper compounds” (priority 2003, published 2004).

System: fish
Conditions: essentially 1 milligram per liter

In the case of `[Cu]` [copper], the “level at which copper is extremely toxic to fish” value is given as “below 1 part per million”.
